Test results reported in patent publication US20200163938A1, “PHARMACEUTICAL COMPOSITION COMPRISING IRON CHELATOR EXHIBITING ANTITUMOR ACTIVITY, ANTIBACTERIAL ACTIVITY AND/OR ANTIVIRUS ACTIVITY, AND HAVING REDUCED SIDE EFFECTS” (priority 2017, published 2020).
“And” between values parts separate entries of the source, which are not always exact repeats. Equal values may be shown once. “Also recorded” adds a separate entry of the source. Read-outs that look alike come from different tables or passages of the source.

What was measured:
[1] = test system: A. actinomycetemcomitans AaY4 (ATCC); test: Antibacterial activity, turbidity and ATP assay; type: cell-based, Aggregatibacter actinomycetemcomitans; settings: anaerobic culture 37° C., 18 hours; FIGS. 7A, 7B
Experimental: A bacterial strain of one of periodontopathic bacteria, A. actinomycetemcomitans, used herein was AaY4 (ATCC). With the use of a liquid medium prepared by adding a yeast extract, sodium bicarbonate and the chelating agent of each test group to TSB medium, anaerobic culture (Anaeropack-anaerobic) was performed at 37° C. for 18 hours. Turbidity was measured using absorbance (OD570 or 595 nm), and cell activity was measured using an ATP assay kit. Results were as depicted in FIGS. 7A and 7B.

[2] = type: in vivo; design: NEFA: unit not given here; settings: for Body weight: rats
Experimental: To a negative control group (saline administration; n=6), the same amount of saline was administered. On day 14 after administration, determining life or death, measurement of body weight, physical items (respiration, body temperature, behavior, etc.) were observed. Moreover, blood samples were taken from each group, and the right kidneys and the livers were removed. Results were as depicted in FIG. 5A to 5C and Tables 4 to 9.

HSC-2 cells = test: Western blot of apoptosis-related factors; type: cell-based, human; settings: HSC-2 cell lysate; FIG. 12
Description: (§1) The cell lysate of each type of cells treated with the chelating agents of test groups 6 and 10 was Western-blotted, and then an increase or a decrease in apoptosis-related factors in treated cells was confirmed using the indicated antibodies. […] Concentration-dependent apoptosis induction was also biochemically confirmed.

MCF-7 cells = test: Western blot of apoptosis-related factors; type: cell-based, human; settings: MCF-7 cell lysate; FIG. 12
Description: as §1

A549 cells = test: Western blot of apoptosis-related factors; type: cell-based, human; settings: A549 cell lysate; FIG. 12
Description: as §1

[3] = test system: P. aeruginosa (ATCC9027; Pseudomonas aeruginosa); test: Minimum growth inhibition concentration (MIC); type: cell-based
Experimental: (§2) The dilution series of the chelating agent of each test group was prepared according to a standard method, microbes were inoculated, and then 24 hours later, the microbial growth was confirmed, thereby determining the minimum growth inhibition concentration of the chelating agent of each test group. Microbes used herein were S. aureus (ATCC6538; Staphylococcus aureus), P. aeruginosa (ATCC9027; Pseudomonas aeruginosa) and C. albicans (ATCC10231; Candida albicans). Drugs used herein were oxacillin, vancomycin and deferasirox as positive controls.

[4] = test system: S. aureus (ATCC6538; Staphylococcus aureus); test: Minimum growth inhibition concentration (MIC); type: cell-based
Experimental: as §2

[5] = test system: C. albicans (ATCC10231; Candida albicans); test: Minimum growth inhibition concentration (MIC); type: cell-based; settings: 24 hours
Experimental: as §2

HCT116 cells = test: Apoptosis induction, TUNEL staining; type: cell-based, human; settings: 10 μg/mL, 48 hours, FIG. 11B
Experimental: Furthermore, the apoptosis-inducing effects of the chelating agents of test groups 6 and 10 on tumors were confirmed. First, 100 μg/mL of the chelating agent of test group 6 or 50 μg/mL of the chelating agent of test group 10 was added to HSC-2 cells in a culture solution. After 48 hours of reaction, TUNEL Assay was carried out. Specifically, apoptosis induction was evaluated by the TUNEL staining method using a MK500 in situ Apoptosis Detection Kit (Takara Bio Inc.).
Similarly, the apoptosis-inducing effects of the chelating agent of test group 6 or 10 on HCT116 cells were confirmed. 10 μg/mL of the chelating agent of test group 6 was added and 6.5 µg/mL of the chelating agent of test group 10 was added to the cells. After 48 hours of reaction, TUNEL staining was carried out similarly to the above.

[6] = test system: subcutaneously-transplanted HCT116 cells; type: in vivo, nude mice (BALB/c nu/nu); settings: mouse, in vivo, 200 mg/kg/day
Experimental: Next, the antitumor effects of the chelating agents of test groups 6 and 10 on HCT116-cell subcutaneous transplantation model mice, into which HCT116 cells had been subcutaneously transplanted, were confirmed. Mice prepared herein were nude mice (BALB/c nu/nu, 6 weeks old: Clea Japan Inc.). HCT116 cells were adjusted at 3×10^6/mouse, and then mixed with Matrigel (BD Biosciences) at 1:1. The thus obtained mixture was administered to mice, thereby preparing subcutaneous tumors. The dosage was 200 mg/kg/day (5 times/week administration). […] Tissue sections of HCT116 cells subcutaneously transplanted into the test group 10 administration group were prepared, and then hematoxylin-eosin (HE) staining, and TUNEL staining were performed by the above-mentioned method.

P. gingivalis Pg W83 = test: Antibacterial activity, turbidity and ATP assay; type: cell-based, Porphyromonas gingivalis; settings: anaerobic culture 37° C., 18 hours, OD595 nm; FIG. 8
Experimental: A bacterial strain of one of periodontopathic bacteria, gram-negative bacillus, P. gingivalis, used herein was Pg W83. With the use of a liquid medium prepared by adding the chelating agent of each test group to a modified GAM bouillon medium, anaerobic culture (Anaeropack.anaerobic) was performed at 37° C. for 18 hours. Turbidity was found from optical density (OD595 nm). Results were as depicted in FIG. 8.

S. mutans (ATCC25175) = test: Antibacterial activity, turbidity and ATP assay; type: cell-based, Streptococcus mutans; settings: aerobic culture 37° C., 18 hours; FIGS. 6A, 6B
Experimental: First, the antibacterial activity of a dental caries-causing bacterium, S. mutans (ATCC25175) was examined. With the use of a liquid medium prepared by adding a yeast extract and the chelating agent of each test group to TSB medium, aerobic culture was performed at 37° C. for 18 hours, and then turbidity was found from optical density (OD570 or 595 nm). Cell activity was measured using an ATP assay kit (Kikkoman Corporation). Results were as depicted in FIGS. 6A and 6B.

[7] = rat blood, oral 200 mg/kg, day 14
[8] = rat blood, oral 1000 mg/kg, day 14, 1000 mg/kg

SMILES: Cl.OCC1OC(O)C(NCc2ccc(O)c(O)c2O)C(O)C1O (stereo not drawn) [Test group 6]
- antimicrobial effects on A. actinomycetemcomitans (turbidity, ATP activity) [1]: strong antimicrobial effects
- ALP [2, 7]: 745 IU/L
- ALT [2, 7]: 34 IU/L
- AST [2, 7]: 58 IU/L
- BUN [2, 7]: 27.2 mg/dL
- CRE [2, 7]: 0.37 mg/dL
- Ca [2, 7]: 10.2 mg/dL
- GLU [2, 7]: 212 mg/dL
- K [2, 7]: 3.6 mEQ/L
- LD [2, 7]: 45 IU/L
- NEFA [2, 7]: 58
- Na [2, 7]: 141 mEQ/L
- T-Bil [2, 7]: 0.03 mg/dL
- TP [2, 7]: 5.1 g/dL
- ALP [2, 8]: 437 IU/L and 471 IU/L
- BUN [2, 8]: 22.2 mg/dL and 28.9 mg/dL
- CRE [2, 8]: 0.31 mg/dL and 0.48 mg/dL
- Ca [2, 8]: 10.2 mg/dL and 11.0 mg/dL
- GLU [2, 8]: 159 mg/dL and 199 mg/dL
- K [2, 8]: 4.5 mEQ/L and 4.1 mEQ/L
- Na [2, 8]: 144 mEQ/L and 143 mEQ/L
- TP [2, 8]: 5.4 g/dL and 5.1 g/dL
- Body weight ([2]; oral 200 mg/kg): 180.37 g
- Body weight ([2]; oral 1000 mg/kg, 1000 mg/kg): 174.48 g and 178.68 g
- PARP cleaved fragments and caspase-3-cleaved fragments (Western blot) (HSC-2 cells): PARP cleaved fragments and caspase-3-cleaved fragments were confirmed
- PARP cleaved fragments and caspase-3-cleaved fragments (Western blot) (MCF-7 cells): PARP cleaved fragments and caspase-3-cleaved fragments were confirmed
- PARP cleaved fragments and caspase-3-cleaved fragments (Western blot) (A549 cells): PARP cleaved fragments and caspase-3-cleaved fragments were confirmed
- MIC P. aeruginosa ([3]; 24 hours): 400 µg/mL
- antimicrobial effects on P. aeruginosa (in words) ([3]; from Table 10): exhibited antimicrobial effects
- MIC S. aureus ([4]; 24 hours): 400 µg/mL
- antimicrobial effects on S. aureus (in words) ([4]; from Table 10): strong antimicrobial effects
- MIC C. albicans [5]: >800 µg/mL
- apoptosis-inducing effects (TUNEL staining) (HCT116 cells): green-stained cells indicating apoptosis were confirmed
- body weight change [6]: no body weight change due to administration was observed
- antimicrobial effects on P. gingivalis (turbidity) (P. gingivalis Pg W83): exhibited antimicrobial effects
- antimicrobial effects on S. mutans (turbidity, ATP activity) (S. mutans (ATCC25175)): strong antimicrobial effects; also recorded: very strong antibacterial activity
